From patent US11130733B2, “4-OXO-alkylated tetramic acid compound, preparation method and use thereof” (BEIJING JOEKAI BIOTECH. LLC, priority 2017, dated 2021)

Experiments:
[1] = system: Salmonella typhimurium TA100; experiment: Mini Ames experiment, strain TA100; type: cell-based
Method: (§1) Histidine auxotrophic strains of Salmonella typhimurium were cultured in a special medium with quite a low content of histidine. The strains were difficult to divide due to lack of nutrition. If a test compound has mutagenicity, a large number of cells will undergo reverse mutation, synthesizing histidine by themselves and developing into colonies visible to the naked eye. In view of the close relationship between mutagenicity and carcinogenesis of chemicals, this method has been widely used in screening carcinogens. Some chemicals need metabolic activation to induce mutagenicity. Mammalian microsomal enzyme S9 can be added into the test system to eliminate the influence of metabolic activation on generation of mutagenicity.
(§2) […] Mini Ames test with compound 50561

[2] = system: Salmonella typhimurium TA98; experiment: Mini Ames experiment, strain TA98; type: cell-based
Method: as §1, §2

[3] = system: Drosophilae containing and expressing human Abeta42 gene; experiment: Pavlov's olfactory-related instantaneous memory test in Drosophila; type: in vivo; details: test medicament 100 μM, 50 μL per 100 drosophilae, 7 consecutive days; FIG. 1 and FIG. 2
Source text: Drosophila has a classical learning and memory paradigm, known as Pavlov's olfactory-related instantaneous memory. During the training program, a group of about 100 drosophilae were exposed sequentially to two odors, i.e., 3-octanol and 4-methylcyclohexanol, each odor for 60 seconds, and to fresh air for 45 seconds therebetween. During exposure to the first odor, the drosophilae were electrocuted on their feet (1.5-second pulses at 3.5-second intervals, 60V), while no electrocution was exerted during exposure to the second odor. In order to detect “instantaneous memory” (also known as “learning”), drosophilae were transferred to the selection area in the T maze immediately after training and forced to choose between the two odors. The drosophilae in each T-maze arm were then captured, anesthetized, and counted. The behavior index was calculated from the distribution of drosophilae in the T maze. […] In each experiment, the age of the control group was matched with that of the experimental group.
Pharmacodynamic evaluation of the candidate compounds: Drosophilae containing and expressing human Abeta42 gene were selected as a diseased control, and drosophilae containing but not expressing human Abeta42 gene were selected as a healthy control. The day after emergence of the drosophilae, male drosophilae were selected and fed. Starting from the third day, drosophilae were fed with a test medicament (100 μM, 50 μL per 100 drosophilae) for 7 consecutive days, 4 hours each day. The above memory test was performed on the drosophilae on the tenth day.

[4] = system: Drosophilae containing and expressing human Abeta42 gene; experiment: as above; type: in vivo; details: FIG. 3; with increase of dosage; compared with positive compound memantine hydrochloride
[5] = TA100, With Metabolic Activation, control article 0.4 μg per well
[6] = TA98, With Metabolic Activation, control article 0.4 μg per well
[7] = TA98, Without Metabolic Activation, control article 2.0 μg per well
[8] = TA100, Without Metabolic Activation, control article 0.2 μg per well

| SMILES | ability to improve the learning and memory of drosophilae [3] | dose-effect relationship to improve memory of drosophilae [4] | other results |
| --- | --- | --- | --- |
| Nc1ccc2cc3ccccc3cc2c1 [Compound 2-AA, reference compound] |  |  | Mean Revertants Per Well [1, 5]: 317.67; Ratio Treated/Solvent [1, 5]: 9.72; Mean Revertants Per Well [2, 6]: 297.67; Ratio Treated/Solvent [2, 6]: 35.72 |
| O=[N+]([O-])c1ccc2c(c1)Cc1ccccc1-2 [Compound 2-NF, reference compound] |  |  | Mean Revertants Per Well [2, 7]: 421.00; Ratio Treated/Solvent [2, 7]: 61.61 |
| O=C1C=C(OCc2ccccc2F)[C@H](Cc2ccccc2)N1 [Compound 51121] | best ability to improve the learning and memory of drosophilae | eventually reaches or exceeds the level of the activity of the positive compound memantine hydrochloride |  |
| O=C1C=C(OCc2cccs2)[C@H](Cc2ccccc2)N1 [Compound 51151] | best ability to improve the learning and memory of drosophilae | eventually reaches or exceeds the level of the activity of the positive compound memantine hydrochloride |  |
| O=C1C=C(OCc2cccc3ccccc23)[C@H](Cc2ccccc2)N1 [Compound 51311] | best ability to improve the learning and memory of drosophilae | eventually reaches or exceeds the level of the activity of the positive compound memantine hydrochloride |  |
| CC(=O)Oc1ccc(COC2=CC(=O)N[C@H]2Cc2ccccc2)cc1 [Compound 51351] | best ability to improve the learning and memory of drosophilae | eventually reaches or exceeds the level of the activity of the positive compound memantine hydrochloride |  |
| COc1ccc(C[C@@H]2NC(=O)C=C2OCc2ccc(OC(C)=O)cc2)cc1 [Compound 60111] | quite a good ability to improve learning and memory of drosophilae |  |  |
| [N-]=[N+]=[N-].[Na+] [SA, reference compound] |  |  | Mean Revertants Per Well [1, 8]: 195.33; Ratio Treated/Solvent [1, 8]: 7.92 |
